How the values were obtained:
Test in all cases: cells
[1] = test system: HEL; assay type: functional, cell-based, Homo sapiens; settings: Homo sapiens, HEL;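 note: growth inhibition of HEL cells, read out with a cell viability assay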
Description: SANGER: Inhibition of human HEL cell growth in a cell viability assay.

[2] = test system: TK-10; assay type: functional, cell-based, Homo sapiens; settings: Homo sapiens, TK-10;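 note: growth inhibition of TK-10 cells, read out in a cell viability assay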
Description: SANGER: Inhibition of human TK10 cell growth in a cell viability assay.

[3] = test system: NB10; assay type: functional, cell-based, Homo sapiens; settings: Homo sapiens, NB10;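 note: growth inhibition of NB10 cells, read out by a cell viability assay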
Description: SANGER: Inhibition of human NB10 cell growth in a cell viability assay.

[4] = test system: COLO-684; assay type: functional, cell-based, Homo sapiens; settings: Homo sapiens, COLO-684
Description: SANGER: Inhibition of human COLO-684 cell growth in a cell viability assay.

[5] = test system: NOMO-1; assay type: functional, cell-based, Homo sapiens; settings: Homo sapiens, NOMO-1;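 note: growth inhibition of human NOMO-1 cells measured by a cell viability assay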
Description: SANGER: Inhibition of human NOMO-1 cell growth in a cell viability assay.

[6] = test system: SK-NEP-1; assay type: functional, cell-based, Homo sapiens; settings: Homo sapiens, SK-NEP-1;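 note: growth inhibition of human SK-NEP-1 cells, read out by a cell viability assay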
Description: SANGER: Inhibition of human SK-NEP-1 cell growth in a cell viability assay.

[7] = test system: KM-H2; assay type: functional, cell-based, Homo sapiens; settings: Homo sapiens, KM-H2;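 note: growth inhibition of KM-H2 cells, read out by a cell viability assay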
Description: SANGER: Inhibition of human KM-H2 cell growth in a cell viability assay.

[8] = test system: L-428; assay type: functional, cell-based, Homo sapiens; settings: Homo sapiens, L-428
Description: SANGER: Inhibition of human L-428 cell growth in a cell viability assay.

[9] = test system: COLO-320-HSR; assay type: functional, cell-based, Homo sapiens; settings: Homo sapiens, COLO-320-HSR;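 note: growth inhibition of COLO-320-HSR cells, determined with a cell viability assay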
Description: SANGER: Inhibition of human COLO-320-HSR cell growth in a cell viability assay.

[10] = test system: C8166; assay type: functional, cell-based, Homo sapiens; settings: Homo sapiens, C8166;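 note: growth inhibition of human C8166 cells measured by a cell viability assay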
Description: SANGER: Inhibition of human C8166 cell growth in a cell viability assay.

[11] = test system: D-247MG; assay type: functional, cell-based; settings: Homo sapiens
Description: SANGER: Inhibition of human D-247MG cell growth in a cell viability assay.

[12] = test system: SNU-C2B; assay type: functional, cell-based; settings: Homo sapiens;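 note: cell viability readout used to measure compound-driven suppression of SNU-C2B cell proliferation, IC50 marking half-maximal growth inhibition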
Description: SANGER: Inhibition of human SNU-C2B cell growth in a cell viability assay.

[13] = test system: DEL; assay type: functional, cell-based, Homo sapiens; settings: Homo sapiens, DEL;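 note: growth inhibition of the human DEL cell line, read out with a cell viability assay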
Description: SANGER: Inhibition of human DEL cell growth in a cell viability assay.

[14] = test system: DMS-114; assay type: functional, cell-based, Homo sapiens; settings: Homo sapiens, DMS-114
[15] = test system: U-87 MG; assay type: functional, cell-based, Homo sapiens, U-87MG ATCC; settings: Homo sapiens, U-87 MG;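 note: growth inhibition of the cells measured with a viability assay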
Description: SANGER: Inhibition of human U-87-MG cell growth in a cell viability assay.

[16] = test system: HCE-4; assay type: functional, cell-based; settings: Homo sapiens;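 note: cell viability assay measuring inhibition of growth in the human HCE-4 cell line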
Description: SANGER: Inhibition of human HCE-4 cell growth in a cell viability assay.

[17] = test system: A704; assay type: functional, cell-based; settings: Homo sapiens;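 note: growth inhibition of human A704 cells, read out with a cell viability assay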
Description: SANGER: Inhibition of human A704 cell growth in a cell viability assay.

[18] = test system: EW-13; assay type: functional, cell-based, Homo sapiens; settings: Homo sapiens, EW-13; read-out: IC50;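 note: growth inhibition of EW-13 cells, read out with a cell viability assay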
Description: SANGER: Inhibition of human EW-13 cell growth in a cell viability assay.

[19] = test system: Becker; assay type: functional, cell-based, Homo sapiens; settings: Homo sapiens, Becker;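 note: growth inhibition of Becker cells, read out with a cell viability assay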
Description: SANGER: Inhibition of human Becker cell growth in a cell viability assay.

[20] = test system: LXF-289 cell line; assay type: functional, cell-based; settings: Homo sapiens
Description: SANGER: Inhibition of human LXF-289 cell growth in a cell viability assay.

[21] = test system: GAK; assay type: functional, cell-based, Homo sapiens; settings: Homo sapiens, GAK;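 note: cell growth inhibition read out by a cell viability assay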
Description: SANGER: Inhibition of human GAK cell growth in a cell viability assay.

[22] = test system: IST-SL1; assay type: functional, cell-based, Homo sapiens; settings: Homo sapiens, IST-SL1;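 note: growth inhibition of human IST-SL1 cells, read out with a cell viability assay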
Description: SANGER: Inhibition of human IST-SL1 cell growth in a cell viability assay.

[23] = test system: U-266; assay type: functional, cell-based, Homo sapiens; settings: Homo sapiens, U-266
Description: SANGER: Inhibition of human U-266 cell growth in a cell viability assay.

[24] = test system: PSN1; assay type: functional, cell-based, Homo sapiens; settings: Homo sapiens, PSN1;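 note: suppression of growth of human PSN1 cells, read out by a cell viability assay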
Description: SANGER: Inhibition of human PSN1 cell growth in a cell viability assay.

[25] = test system: D283 Med; assay type: functional, cell-based, Homo sapiens; settings: Homo sapiens, D283 Med
Description: SANGER: Inhibition of human D-283MED cell growth in a cell viability assay.

[26] = test system: OVCAR-4; assay type: functional, cell-based, Homo sapiens; settings: Homo sapiens, OVCAR-4;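 note: growth inhibition of human OVCAR-4 cells, measured with a cell viability assay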
Description: SANGER: Inhibition of human OVCAR-4 cell growth in a cell viability assay.

[27] = test system: LS-411N; assay type: functional, cell-based, Homo sapiens; settings: Homo sapiens, LS-411N
[28] = test system: RKO; assay type: functional, cell-based, Homo sapiens; settings: Homo sapiens, RKO;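 note: growth inhibition of human RKO cells, read out with a cell viability assay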
Description: SANGER: Inhibition of human RKO cell growth in a cell viability assay.

[29] = test system: UACC-257; assay type: functional, cell-based, Homo sapiens; settings: Homo sapiens, UACC-257
Description: SANGER: Inhibition of human UACC-257 cell growth in a cell viability assay.

[30] = test system: NKM-1; assay type: functional, cell-based, Homo sapiens; settings: Homo sapiens, NKM-1;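 note: growth inhibition of NKM-1 cells, read out with a cell viability assay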
Description: SANGER: Inhibition of human NKM-1 cell growth in a cell viability assay.

[31] = test system: SNU1; assay type: functional, cell-based, Homo sapiens; settings: Homo sapiens, SNU1;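 note: growth inhibition of human NCI-SNU-1 cells, measured with a cell viability assay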
Description: SANGER: Inhibition of human NCI-SNU-1 cell growth in a cell viability assay.

[32] = test system: DOHH-2; assay type: functional, cell-based, Homo sapiens; settings: Homo sapiens, DOHH-2;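 note: growth inhibition of human DOHH-2 cells, read out with a cell viability assay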
Description: SANGER: Inhibition of human DOHH-2 cell growth in a cell viability assay.

[33] = test system: BT-474; assay type: functional, cell-based, Homo sapiens; settings: Homo sapiens, BT-474
Description: SANGER: Inhibition of human BT-474 cell growth in a cell viability assay.

[34] = test system: NCI-N87; assay type: functional, cell-based; settings: Homo sapiens;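 note: growth inhibition of human NCI-N87 cells, read out with a cell viability assay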
Description: SANGER: Inhibition of human NCI-N87 cell growth in a cell viability assay.

[35] = test system: COLO-829; assay type: functional, cell-based, Homo sapiens; settings: Homo sapiens, COLO-829
Description: SANGER: Inhibition of human COLO-829 cell growth in a cell viability assay.

[36] = test system: NCI-H526; assay type: functional, cell-based, Homo sapiens; settings: Homo sapiens, NCI-H526;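 note: growth inhibition of the human NCI-H526 cell line, measured by a cell viability assay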
Description: SANGER: Inhibition of human NCI-H526 cell growth in a cell viability assay.

[37] = test system: COLO-800; assay type: functional, cell-based, Homo sapiens; settings: Homo sapiens, COLO-800;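 note: growth inhibition of COLO-800 cells, read out with a cell viability assay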
Description: SANGER: Inhibition of human COLO-800 cell growth in a cell viability assay.

[38] = test system: ATN-1; assay type: functional, cell-based, Homo sapiens; settings: Homo sapiens, ATN-1;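 note: growth inhibition of human ATN-1 cells, read out with a cell viability assay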
Description: SANGER: Inhibition of human ATN-1 cell growth in a cell viability assay.

[39] = test system: J-RT3-T3-5; assay type: functional, cell-based, Homo sapiens; settings: Homo sapiens, J-RT3-T3-5;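 note: cell viability assay measuring growth inhibition of human J-RT3-T3-5 cells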
Description: SANGER: Inhibition of human J-RT3-T3-5 cell growth in a cell viability assay.

[40] = test system: TE-8; assay type: functional, cell-based, Homo sapiens; settings: Homo sapiens, TE-8;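 note: growth inhibition of TE-8 cells, measured with a cell viability readout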
Description: SANGER: Inhibition of human TE-8 cell growth in a cell viability assay.

[41] = test system: DU-4475; assay type: functional, cell-based, Homo sapiens; settings: Homo sapiens, DU-4475
Description: SANGER: Inhibition of human DU-4475 cell growth in a cell viability assay.

[42] = test system: CGTH-W-1; assay type: functional, cell-based, Homo sapiens; settings: Homo sapiens, CGTH-W-1;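 note: growth inhibition of human CGTH-W-1 cells measured by cell viability assay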
Description: SANGER: Inhibition of human CGTH-W-1 cell growth in a cell viability assay.

[43] = test system: NCI-H1092; assay type: functional, cell-based, Homo sapiens; settings: Homo sapiens, NCI-H1092;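 note: cell growth inhibition measured with a cell viability assay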
Description: SANGER: Inhibition of human NCI-H1092 cell growth in a cell viability assay.

[44] = test system: NEC8; assay type: functional, cell-based, Homo sapiens; settings: Homo sapiens, NEC8;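 note: growth inhibition of human NEC8 cells, read out by a cell viability assay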
Description: SANGER: Inhibition of human NEC8 cell growth in a cell viability assay.

[45] = test system: A498; assay type: functional, cell-based, Homo sapiens; settings: Homo sapiens, A498;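 note: growth inhibition of human A498 cells, read out with a cell viability assay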
Description: SANGER: Inhibition of human A498 cell growth in a cell viability assay.

[46] = test system: NCI-H1770; assay type: functional, cell-based, Homo sapiens; settings: Homo sapiens, NCI-H1770;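 note: growth inhibition of NCI-H1770 cells determined with a viability readout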
Description: SANGER: Inhibition of human NCI-H1770 cell growth in a cell viability assay.

[47] = test system: RS4-11; assay type: functional, cell-based, Homo sapiens; settings: Homo sapiens, RS4-11;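 note: growth inhibition of RS4-11 cells, read out by a cell viability assay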
Description: SANGER: Inhibition of human RS4-11 cell growth in a cell viability assay.

[48] = test system: CTV-1; assay type: functional, cell-based, Homo sapiens; settings: Homo sapiens, CTV-1;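 note: growth inhibition of the cell line, read out with a cell viability assay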
Description: SANGER: Inhibition of human CTV-1 cell growth in a cell viability assay.

[49] = test system: SNU-5; assay type: functional, cell-based, Homo sapiens; settings: Homo sapiens, SNU-5;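 note: cell viability readout used to measure growth inhibition in human NCI-SNU-5 cells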
Description: SANGER: Inhibition of human NCI-SNU-5 cell growth in a cell viability assay.

[50] = test system: NCI-H69; assay type: functional, cell-based, Homo sapiens; settings: Homo sapiens, NCI-H69;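 note: growth inhibition of the cell line, read out with a cell viability assay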
Description: SANGER: Inhibition of human NCI-H69 cell growth in a cell viability assay.

CS(=O)(=O)N1CCN(Cc2cc3nc(-c4cccc5[nH]ncc45)nc(N4CCOCC4)c3s2)CC1 [PICTILISIB]
IC50 [1]: > 4000 nM | IC50 [2]: 1670 nM | IC50 [3]: > 4000 nM | IC50 [4]: 523 nM | IC50 [5]: > 4000 nM | IC50 [6]: 726 nM | IC50 [7]: > 4000 nM | IC50 [8]: > 4000 nM | IC50 [9]: > 4000 nM | IC50 [10]: > 4000 nM | IC50 [11]: > 4000 nM | IC50 [12]: > 4000 nM | IC50 [13]: > 4000 nM | IC50 [14]: > 4000 nM | IC50 [15]: > 4000 nM | IC50 [16]: > 4000 nM | IC50 [17]: 1510 nM | IC50 [18]: > 4000 nM | IC50 [19]: 3170 nM | IC50 [20]: 448 nM | IC50 [21]: > 4000 nM | IC50 [22]: > 4000 nM | IC50 [23]: > 4000 nM | IC50 [24]: > 4000 nM | IC50 [25]: 2360 nM | IC50 [26]: > 4000 nM | IC50 [27]: > 4000 nM | IC50 [28]: > 4000 nM | IC50 [29]: > 4000 nM | IC50 [30]: 593 nM | IC50 [31]: > 4000 nM | IC50 [32]: > 4000 nM | IC50 [33]: > 4000 nM | IC50 [34]: 2130 nM | IC50 [35]: > 4000 nM | IC50 [36]: 1910 nM | IC50 [37]: > 4000 nM | IC50 [38]: > 4000 nM | IC50 [39]: > 4000 nM | IC50 [40]: 3480 nM | IC50 [41]: > 4000 nM | IC50 [42]: > 4000 nM | IC50 [43]: > 4000 nM | IC50 [44]: 654 nM | IC50 [45]: 1300 nM | IC50 [46]: 124 nM | IC50 [47]: 262 nM

CC(C)C[C@H](NC(=O)[C@H](Cc1ccccc1)NC(=O)c1cnccn1)B(O)O [BORTEZOMIB]
IC50 [1]: 1.61 nM | IC50 [2]: 0.679 nM | IC50 [3]: 2.32 nM | IC50 [4]: 3.66 nM | IC50 [48]: 2.8 nM | IC50 [5]: 4.33 nM | IC50 [6]: 9.01 nM | IC50 [7]: > 20 nM | IC50 [8]: > 20 nM | IC50 [9]: 3.92 nM | IC50 [10]: > 20 nM | IC50 [11]: 0.413 nM | IC50 [13]: > 20 nM | IC50 [14]: 9.62 nM | IC50 [15]: 16.8 nM | IC50 [18]: > 20 nM | IC50 [19]: 1.83 nM | IC50 [20]: 0.269 nM | IC50 [22]: 4.68 nM | IC50 [23]: 1.76 nM | IC50 [24]: 1.01 nM | IC50 [25]: > 20 nM | IC50 [26]: 0.289 nM | IC50 [27]: 1.53 nM | IC50 [28]: 1.06 nM | IC50 [29]: 0.71 nM | IC50 [30]: 2 nM | IC50 [49]: 5.17 nM | IC50 [31]: 13.2 nM | IC50 [32]: > 20 nM | IC50 [33]: > 20 nM | IC50 [50]: 1.54 nM | IC50 [34]: > 20 nM | IC50 [35]: 0.614 nM | IC50 [36]: > 20 nM | IC50 [37]: 17.6 nM | IC50 [38]: 8.89 nM | IC50 [39]: > 20 nM | IC50 [40]: 1.19 nM | IC50 [41]: 1.36 nM | IC50 [42]: 3.1 nM | IC50 [43]: 1.8 nM | IC50 [44]: 3.35 nM | IC50 [46]: > 20 nM | IC50 [47]: > 20 nM

— ChEMBL document CHEMBL1201861, “Genomics of Drug Sensitity in Cancer screening data, Wellcome Trust Sanger Institute”
